What was measured:
muscarinic M2 receptors = target: T1, muscarinic M2 receptors (Rattus norvegicus, UniProt P10980); experiment: Inhibition of binding to muscarinic M2 receptors ([3H]-N-methylscopolamine, heart membrane); conditions: 0.2 nM [3H]-N-methylscopolamine
T1 construct: a membrane specimen from the heart was used as the membrane specimen; from tissue; host or cells: rat heart membranes (SD rat)
T1 sequence (P10980 1-466): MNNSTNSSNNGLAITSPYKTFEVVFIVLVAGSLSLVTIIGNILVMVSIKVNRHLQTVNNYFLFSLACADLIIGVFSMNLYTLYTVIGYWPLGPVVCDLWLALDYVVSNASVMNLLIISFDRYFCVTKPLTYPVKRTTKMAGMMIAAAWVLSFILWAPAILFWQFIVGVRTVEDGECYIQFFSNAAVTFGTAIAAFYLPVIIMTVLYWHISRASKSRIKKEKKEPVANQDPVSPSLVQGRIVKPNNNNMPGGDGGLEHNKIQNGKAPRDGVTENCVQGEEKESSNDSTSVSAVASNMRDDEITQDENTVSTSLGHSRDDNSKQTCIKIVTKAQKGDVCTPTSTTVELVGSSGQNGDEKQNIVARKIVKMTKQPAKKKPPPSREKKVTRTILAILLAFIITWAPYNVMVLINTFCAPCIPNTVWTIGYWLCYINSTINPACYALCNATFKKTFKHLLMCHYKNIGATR
Experimental: The compounds of formula [I] in accordance with the present invention have a potent and selective inhibitory effect on binding to muscarinic receptors, as well as a potent and selective antagonistic effect on muscarinic receptors both in vitro and in vivo. […] In these tests, their inhibitory and antagonistic effects were expressed in terms of the dissociation constant (Ki) of each test compound which was calculated from its concentration (IC50 ) causing a 50% inhibition of the binding of a labeled ligand to muscarinic receptors. As the labeled ligand, [^3 H]-telenzepine was used for the muscarinic M1 receptors and [^3 H]-N-methylscopolamine for the muscarinic M2 and M3 receptors.
(§1) A male SD strain rat (purchased from Nippon Charles River Co., Ltd.), weighing about 250-350 g, was sacrificed, and the cerebral cortex, heart and lacrimal glands were excised. Using a Polytron (setting 5), each organ was homogenized in 5 volumes of an ice-cold buffer solution (pH 7.4) containing 50 mM tris-HCl, 5 mM magnesium chloride, 1 mM trisodium ethylenediaminetetraacetate and 20% sucrose. The resulting homogenate was centrifuged at 3,000×g at 4° C. for 15 minutes, and the supernatant was filtered through gauze and ultracentrifuged at 100,000×g at 4° C. for 45 minutes. The resulting precipitate was suspended in an ice-cold buffer solution (pH 7.4) containing 50 mM tris-HCl and 5 mM magnesium chloride (hereinafter referred briefly to as "tris buffer") and ultracentrifuged at 100,000×g at 4° C. for 45 minutes. The resulting precipitate was suspended in tris buffer so as to give a concentration of 50 mg/ml and stored at -80° C. till use. The membrane specimens so prepared were thawed prior to use and submitted to tests for the inhibition of binding to muscarinic receptors.
3) Tests for the inhibition of binding to the muscarinic M2 receptors
(§2) The nonspecific binding of [^3 H]-N-methylscopolamine to receptors was determined by the addition of 1 mM N-methylscopolamine.

muscarinic M1 receptors = target: T2, muscarinic M1 receptors (Rattus norvegicus, UniProt P08482); experiment: Inhibition of binding to muscarinic M1 receptors ([3H]-telenzepine, cerebral cortex membrane)
T2 construct: a mixture of a membrane specimen from the cerebral cortex; from tissue; host or cells: rat cerebral cortex membranes (SD rat)
T2 sequence (P08482 1-460): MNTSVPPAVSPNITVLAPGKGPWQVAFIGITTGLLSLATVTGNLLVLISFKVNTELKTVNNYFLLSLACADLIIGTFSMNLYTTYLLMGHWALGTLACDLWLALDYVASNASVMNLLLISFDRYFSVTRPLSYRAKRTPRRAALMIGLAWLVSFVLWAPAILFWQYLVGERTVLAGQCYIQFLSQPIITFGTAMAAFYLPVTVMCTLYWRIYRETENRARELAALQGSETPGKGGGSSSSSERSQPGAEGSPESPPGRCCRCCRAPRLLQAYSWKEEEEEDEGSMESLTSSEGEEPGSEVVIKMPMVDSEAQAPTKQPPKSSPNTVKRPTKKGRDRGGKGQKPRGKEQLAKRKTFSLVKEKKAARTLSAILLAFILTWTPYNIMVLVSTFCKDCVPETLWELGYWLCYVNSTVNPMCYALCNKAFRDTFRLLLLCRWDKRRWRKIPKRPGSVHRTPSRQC
Experimental: (§3) In these tests, their inhibitory and antagonistic effects were expressed in terms of the dissociation constant (Ki) of each test compound which was calculated from its concentration (IC50 ) causing a 50% inhibition of the binding of a labeled ligand to muscarinic receptors. As the labeled ligand, [^3 H]-telenzepine was used for the muscarinic M1 receptors and [^3 H]-N-methylscopolamine for the muscarinic M2 and M3 receptors.
as §1
2) Tests for the inhibition of binding to the muscarinic M1 receptors
These tests were performed according to a modification of the method of Hargreaves et al. [Br. J. Pharmacol., Vol. 107, pp. 494-501 (1992)]. Specifically, a mixture of a membrane specimen from the cerebral cortex, 1 nM [^3 H]-telenzepine (85 Ci/mmol; manufactured by New England Nuclear) and a test compound in 0.5 ml of tris buffer was incubated at room temperature (about 20°-25° C.) for 120 minutes. After the addition of 0.5 ml of ice-cold tris buffer, the mixture was filtered by suction through a glass filter (Packard Unifilter Plate GF/C). Then, the filter was washed four times with 1 ml portions of ice-cold tris buffer and dried at 50° C. for an hour. After the addition of a scintillator (Packard Microscinti 0), the radioactivity of [^3 H]-telenzepine adsorbed to the filter was measured with a microplate scintillation counter (Packard Topcount). The nonspecific binding of [^3 H]-telenzepine to receptors was determined by the addition of […] pirenzepine. According to the method of Cheng and Prusoff [Biochem. Pharmacol., Vol. 22, pp. 3099-3108 (1973)], the affinity of the test compound (i.e., a compound in accordance with the present invention) for the muscarinic M1 receptors was determined in terms of its dissociation constant (Ki) calculated from the concentration (IC50) of the test compound which was required to cause a 50% inhibition of the binding of [^3 H]-telenzepine used as the labeled ligand.

muscarinic M3 receptor = muscarinic M3 receptor (Rattus norvegicus, UniProt P08483); experiment: Inhibition of binding to muscarinic M3 receptors ([3H]-N-methylscopolamine, lacrimal gland membrane); parameters: a membrane specimen from the lacrimal glands was used as the membrane specimen; from tissue; host or cells: rat lacrimal gland membranes (SD rat); conditions: for M1/M3 / M2/M3: ratio of binding Ki; for M1/M3: M1 over M3; for M2/M3: M2 over M3
Experimental: as §3, §1
4) Tests for the inhibition of binding to the muscarinic M2 receptors
as §2

Chain of muscarinic M3 receptor (P08483 whole entry): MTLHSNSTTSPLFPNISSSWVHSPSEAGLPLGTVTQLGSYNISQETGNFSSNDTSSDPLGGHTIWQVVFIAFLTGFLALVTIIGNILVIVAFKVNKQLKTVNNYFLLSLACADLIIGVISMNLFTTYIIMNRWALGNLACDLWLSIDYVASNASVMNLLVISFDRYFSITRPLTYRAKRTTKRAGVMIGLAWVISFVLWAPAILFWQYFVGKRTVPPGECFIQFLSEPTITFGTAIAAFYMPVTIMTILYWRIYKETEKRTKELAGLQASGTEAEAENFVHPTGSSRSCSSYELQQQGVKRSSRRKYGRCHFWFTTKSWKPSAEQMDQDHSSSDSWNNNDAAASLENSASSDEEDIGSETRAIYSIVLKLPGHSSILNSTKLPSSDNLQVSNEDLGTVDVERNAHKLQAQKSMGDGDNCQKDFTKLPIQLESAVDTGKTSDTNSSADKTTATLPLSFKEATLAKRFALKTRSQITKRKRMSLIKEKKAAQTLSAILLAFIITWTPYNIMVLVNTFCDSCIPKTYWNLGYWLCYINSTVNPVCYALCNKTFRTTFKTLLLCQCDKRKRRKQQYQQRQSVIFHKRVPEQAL

SMILES	Ki (muscarinic M2 receptors) [nM]	Ki (muscarinic M1 receptors) [nM]	Ki (muscarinic M3 receptor) [nM]	M1/M3 (muscarinic M3 receptor)	M2/M3 (muscarinic M3 receptor)
CC[C@H](C)CCCN1CCC(NC(=O)[C@](O)(c2ccccc2)C2CCCC2)CC1.Cl [Example 29, (2R)-N-{1-[(4S)-4-Methylhexyl]piperidin-4-yl}-2-cyclopentyl-2-hydroxy-2-phenylacetamide hydrochloride]	1100	40	4.1	10	270
CC(C)=CCCN1CCC(NC(=O)[C@](O)(c2ccccc2)C2CCCC2)CC1.O=C(O)/C=C/C(=O)O [Example 28, (2R)-N-[1-(4-Methyl-3-pentenyl)piperidin-4-yl]-2-cyclopentyl-2-hydroxy-2-phenylacetamide fumarate]	190	6	2	3.0	96
O=C(NC1CCN(CC2CCCCC2)CC1)C(O)(c1ccccc1)C1CCCC1 (stereo not shown) [Example 32, N-[1-(Cyclohexylmethyl)piperidin-4-yl]-2-cyclopentyl-2-hydroxy-2-phenylacetamide]	2300	–	11	–	–
CC[C@H](C)CCCN1CCC(NC(=O)[C@](O)(c2ccccc2)C2CCC2)CC1.Cl [Example 22, (2R)-N-{1-[(4S)-4-Methylhexyl]piperidin-4-yl}-2-cyclobutyl-2-hydroxy-2-phenylacetamide hydrochloride]	1400	120	9.2	13.0	152
CC(C)=CCCN1CCC(NC(=O)C(O)(c2ccccc2)C2CCCC2)CC1 (stereo not shown) [Example 16, N-[1-(4-Methyl-3-pentenyl)piperidin-4-yl]-2-cyclopentyl-2-hydroxy-2-phenylacetamide]	302	13	3.1	4.2	97
